Source: US5536737A, “Compound having prolyl endopeptidase inhibitory activity and pharmaceutical use thereof” (Japan Tobacco Inc., priority 1992, dated 1996)

Legend:
Type in all cases: biochemical
prolyl endopeptidase = target: T1, prolyl endopeptidase (Rattus norvegicus, UniProt O70196); test: Prolyl endopeptidase-inhibitory activity
T1 construct: prolyl endopeptidase extracted from rat brain; from tissue; host or cells: rat brain
T1 sequence (O70196 1-710): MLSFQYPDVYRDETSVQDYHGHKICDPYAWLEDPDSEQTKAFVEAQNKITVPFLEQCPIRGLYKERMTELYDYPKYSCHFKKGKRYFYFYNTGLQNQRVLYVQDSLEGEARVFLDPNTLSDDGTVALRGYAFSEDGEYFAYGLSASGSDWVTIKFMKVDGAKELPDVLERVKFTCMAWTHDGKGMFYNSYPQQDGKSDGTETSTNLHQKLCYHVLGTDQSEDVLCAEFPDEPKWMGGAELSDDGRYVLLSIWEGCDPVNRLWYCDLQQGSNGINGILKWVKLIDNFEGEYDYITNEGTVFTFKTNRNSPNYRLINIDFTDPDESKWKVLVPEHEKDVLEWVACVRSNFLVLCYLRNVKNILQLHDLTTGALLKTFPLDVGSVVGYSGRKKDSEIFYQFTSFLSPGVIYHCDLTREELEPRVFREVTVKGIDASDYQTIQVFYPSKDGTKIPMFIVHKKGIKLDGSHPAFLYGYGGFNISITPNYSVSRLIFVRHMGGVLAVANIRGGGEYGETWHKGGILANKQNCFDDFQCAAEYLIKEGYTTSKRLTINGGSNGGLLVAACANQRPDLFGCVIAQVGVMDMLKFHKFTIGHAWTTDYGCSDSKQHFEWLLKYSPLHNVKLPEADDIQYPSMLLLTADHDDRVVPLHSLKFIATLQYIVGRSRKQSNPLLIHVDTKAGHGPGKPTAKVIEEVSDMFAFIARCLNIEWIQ
Procedure: Prolyl endopeptidase-inhibitory activity
A mixture of a 0.1M potassium-sodium phosphate buffer (pH 7.0, 2675 μl ), a solution of the compound of the present invention in a 0.1M potassium-sodium phosphate buffer (pH 7.0, 100 μl ) and a solution of prolyl endopeptidase extracted from rat brain in a 25 mM sodium phosphate buffer (100 μl ) [123 unit/1, pH 6.8, containing 1 mM dithiothreitol and 0.5 mM EDTA, prepared by the method described in J. Neurochem., 35, 527 (1980)] was preincubated at 30° C. for 30 minutes. Thereto was added a 0.2 mM solution of 7-(N-succinyl-glycyl-prolyl)-4methylcoumarinamide (Peptide Institute, INC.) in a 0.1M potassium-sodium phosphate buffer (pH 7.0, 125 μl), and the mixture was incubated at 30° C. for 1 hour. The reaction mixture was immersed in ice (0° C.) to terminate the reaction, and the fluorescence (a1) was determined ten minutes later (excitation at 370 nm and emission at 440 nm). Concurrently, an experiment wherein, in the above system, the prolyl endopeptidase solution was substituted for a 25 mM sodium phosphate buffer (pH 6.8, containing 1 mM dithiothreitol and 0.5 mM EDTA) and an experiment wherein the solution of the compound of the present invention was substituted for a 0.1M potassium-sodium phosphate buffer (pH 7.0) were conducted. Each fluorescence (a2 and a3) was determined [See Tanpakushitsu Kakusan Koso, 29, 127 (1984)]. The prolyl endopeptidase inhibition was calculated by the following formula, and IC50, a concentration necessary for 50% inhibition, was estimated by using a semilogarithmic graph paper. [formula]

chymotrypsin = target: T2, chymotrypsin (Bos taurus, UniProt P00766); test: Chymotrypsin-inhibitory activity; settings: concentration 0.1 μM; bovine pancreas, pH 8.0
T2 construct: purchased Sigma; host or cells: bovine pancreas
Procedure: (§1) Inhibitory activity against various proteases
(§2) The compound of the present invention having predetermined concentrations was tested for the specificity of the inhibitory activity against various proteases according to a known test method.
(§3) The methods for the determination of the inhibitory activity against various proteases other than prolyl endopeptidase and the method for calculating the inhibition are as follows.
Determination of chymotrypsin-inhibitory activity
In completely the same manner as above, respective fluorescence (c1, c2 and c3) was determined using a 50 mM Tris-HCl buffer (pH 8.0) as a buffer for determination, a 0.2 μM solution of chymotrypsin (derived from bovine pancreas, Sigma) in the same buffer as an enzyme solution, and a 200 μM solution of 7-(N-succinyl-leucyl-leucyl-varyl-tyrosyl)-4-methylcoumarinamide (Peptide Institute, Inc.) in the same buffer as a substrate solution.
(§4) Using the fluorescence x1, x2 and x3 wherein x is b, c, d, e or f, measured in the above-mentioned manner, the inhibition against various proteases was calculated by the following formula: [formula]

cathepsin B = target: T3, cathepsin B (Bos taurus, UniProt P07688); test: Cathepsin B-inhibitory activity; settings: concentration 0.1 μM; bovine spleen, pH 6.0
T3 construct: purchased Sigma; host or cells: bovine spleen
Procedure: as §1, §2, §3
Determination of cathepsin B-inhibitory activity
In completely the same manner as above, respective fluorescence (f1, f2 and f3) was determined using a 100 mM sodium phosphate buffer (pH 6.0; containing 1.33 mM EDTA Na2) as a buffer for determination, a 0.02 μM solution of cathepsin B (derived from bovine spleen, Sigma) in the same buffer as an enzyme solution and a 200 μM solution of 7-(N-benzyloxy-carbonyl-phenylaranyl-arginyl)-4-methylcouma-rinamide (Peptid Institute, Inc.) in the same buffer as a substrate solution.
as §4

trypsin = target: T4, trypsin (Bos taurus, UniProt P00760); test: Trypsin-inhibitory activity; settings: concentration 0.1 μM; bovine pancreas, pH 8.0
T4 construct: purchased Sigma; host or cells: bovine pancreas
T4 sequence (P00760 24-246): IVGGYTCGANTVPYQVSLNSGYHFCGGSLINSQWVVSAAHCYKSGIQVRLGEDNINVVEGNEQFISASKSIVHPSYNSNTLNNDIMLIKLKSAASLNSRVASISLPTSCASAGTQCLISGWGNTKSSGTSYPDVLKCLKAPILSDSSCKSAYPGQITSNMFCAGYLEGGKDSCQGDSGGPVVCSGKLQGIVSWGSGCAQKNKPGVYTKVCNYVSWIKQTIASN
Procedure: as §1, §2, §3
Determination of trypsin-inhibitory activity
In the present invention, a 50 mM Tris-HCI buffer (pH 8.0) was used as a buffer for measurement.
To a mixture of the above-mentioned buffer (850 μl ), a solution of the compound of the present invention in the same buffer (50 μl ) and a 0.02 μM solution of trypsin (derived from bovine pancreas, Sigma) in the same buffer (50 μl ) was added a 200 μM solution of 7-(prolyl-phenylaranyl-arginyl)-4methylcoumarinamide (Peptide Institute, Inc.) in the same buffer (50 μl), and the mixture was incubated at 30° C. for 1 hour. The reaction mixture was immersed in ice (0° C.) to terminate the reaction, and the fluorescence (b1) was determined 1 hour later (excitation at 370 nm and emission at 440 nm). Concurrently, an experiment wherein, in the system above, the trypsin solution was substituted for a buffer and an experiment wherein the solution of the compound of the present invention was substituted for said buffer were conducted. Each fluorescence (b2 and b3) was determined.
as §4

elastase = target: T5, elastase (Sus scrofa, UniProt P00772); test: Elastase-inhibitory activity; settings: concentration 0.1 μM; swine pancreas, pH 8.5
T5 construct: purchased Sigma; host or cells: swine pancreas
Procedure: as §1, §2, §3
Determination of elastase-inhibitory activity
In completely the same manner as above, respective fluorescence (e1, e2 and e3) was determined using a 1 mM Tris-HCl buffer (pH 8.5) as a buffer for determination, a 0.2 μM solution of elastase (derived from swine pancreas, Sigma) in the same buffer as an enzyme solution and a 200 μM solution of 7-(N-succinyl-aranyl-prolyl-aranyl)-4-methylcoumarinamide (Peptide Institute, Inc.) in the same buffer as a substrate solution.
as §4

leucine aminopeptidase = test: Leucine aminopeptidase-inhibitory activity; settings: concentration 0.1 μM; swine kidney, pH 8.0
Procedure: as §1, §2, §3
Determination of leucine aminopeptidase-inhibitory activity
In completely the same manner as above, respective fluorescence (d1, d2 and d3) was determined using a 50 mM Tris-HCl buffer (pH 8.0) as a buffer for determination, a 0.2 μM solution of leucine aminopeptidase (derived from swine kidney, Sigma) in the same buffer as an enzyme solution and a 200 μM solution of 7-leucyl-4-methyl-coumarinamide (Peptide Institute, Inc.) in the same buffer as a substrate solution.
as §4

T5 sequence (P00772 27-266): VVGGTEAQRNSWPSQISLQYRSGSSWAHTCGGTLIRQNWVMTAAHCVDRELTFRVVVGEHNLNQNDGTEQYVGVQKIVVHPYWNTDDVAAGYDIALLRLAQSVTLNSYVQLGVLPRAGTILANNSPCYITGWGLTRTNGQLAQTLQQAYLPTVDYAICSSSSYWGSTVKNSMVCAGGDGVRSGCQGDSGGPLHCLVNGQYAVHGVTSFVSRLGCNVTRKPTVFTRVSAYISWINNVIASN

Work on `CC(=O)OCC(=O)[C@@H]1CCCN1C(=O)[C@@H]1CCCN1C(=O)NCc1ccccc1` [Compound 1, (S)-2-[[(S)-2-(Acetoxyacetyl)-1-pyrrolidinyl]carbonyl]-N-(phenylmethyl)-1-pyrrolidinecarboxamide] yielded an IC50 (prolyl endopeptidase) of 0.1 nM, an inhibition at 0.1 µM (prolyl endopeptidase; read-out: inhibition of prolyl endopeptidase) of 100% and an inhibition at 0.1 µM (chymotrypsin) of 0%. The inhibition at 0.1 µM (cathepsin B) was 0%, the inhibition at 0.1 µM (trypsin) was 0% and the inhibition at 0.1 µM (elastase) was 0%. The inhibition of leucine aminopeptidase (leucine aminopeptidase) was 0%.
